According to patent EP4663204A1, “COMPOUNDS USEFUL FOR THE MODULATION OF THE ACTIVITY OF STING” (Sulis Therapeutics ApS, priority 2024, dated 2025):
“Also recorded” adds a separate entry of the source.

Columns and labels:
Assay type in all cases: cell-based
STING [1] = target: T1, STING (Homo sapiens, UniProt Q86WV6); assay: Western Blot of cGAMP-induced STING activation in HFF-1 cells (Figure 10B); design: To assess STING degradation and recovery in human foreskin fibroblasts HFF-1 cells; host or cells: HFF-1 human foreskin fibroblasts; details: 5 µM for 15 min, then 8 µg/mL cGAMP for 2 h or 5 h, versus cGAMP alone
T1 sequence (Q86WV6 whole entry, the tested form may be a part): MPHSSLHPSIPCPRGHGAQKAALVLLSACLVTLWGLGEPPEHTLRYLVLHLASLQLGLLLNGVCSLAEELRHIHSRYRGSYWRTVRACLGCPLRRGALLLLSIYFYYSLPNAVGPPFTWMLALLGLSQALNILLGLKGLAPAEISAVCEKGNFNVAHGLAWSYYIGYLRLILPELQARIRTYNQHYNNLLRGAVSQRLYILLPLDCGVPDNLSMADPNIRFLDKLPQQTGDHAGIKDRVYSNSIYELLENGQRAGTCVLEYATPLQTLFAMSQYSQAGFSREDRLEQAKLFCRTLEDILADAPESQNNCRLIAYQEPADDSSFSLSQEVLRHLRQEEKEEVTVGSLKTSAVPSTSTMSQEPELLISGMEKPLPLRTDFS
Description: (§1) To assess whether S1 STING ligands inhibit STING activation, primary human skin fibroblasts (Figure 9) or HFF-1 cells (Figure 10) were treated with various compounds which comprise only an S1 ligand domain and a Linker domain before undergoing Western Blot analysis as described below.
(§2) Cell culture methods as described above for primary human skin fibroblast and HFF-1 cells were used in the current experiments. Methods as described above for H596, H1650 and HaCat cells were applied for cell lysis and western blotting.
(§3) In Figure 10B, similar experiments were performed as for Figure 10A, except that cells were activated with 8 µg/mL cGAMP instead of diABZI c3. In addition, the controls used in this set of experiments was A11, A25, A26 and A30 as a single agent with no cGAMP activation.

STING [2] = target: T1, STING; assay: Western Blot of diABZI-induced STING activation in HFF-1 cells (Figure 10A); design: To assess STING degradation and recovery in human foreskin fibroblasts HFF-1 cells; host or cells: HFF-1 human foreskin fibroblasts; details: 5 µM for 15 min, then 300 nM diABZI for 2 h or 5 h, versus diABZI c3 alone
Description: as §1, §2
In Figure 10A, HFF-1 cells were treated with 5 µM of compounds A11, A25, A26, or A30, or 0.5 µM STING antagonist control for 15 min followed prior to addition of 300 nM diABZI and incubation for 2 h or 5 h. The cells were lysed and analysed on WB. As additional controls, cells were left untreated (UT), treated with Lipofectamine (Lipo control) or with compounds A26 or A30 as single agent. […]

STING [3] = target: T1, STING; assay: Western Blot of STING agonist activity of compounds as single agent in HFF-1 cells; design: To assess STING degradation and recovery in human foreskin fibroblasts HFF-1 cells; host or cells: HFF-1 human foreskin fibroblasts; details: compound as single agent, no activation
Description: S1 is a STING ligand. […] Any standard method known in the art may be used to determine STING agonist activity. For example, STING agonist activity (or lack thereof) can be measured as described in Examples 11 and/or Example 12. For example, following the method described in Example 11, cells may be incubated with a compound comprising a S1 STING ligand. The cells may be lysed and Western Blotting performed. Western blots may be probed for phospho-STING and/or phospho-TBK1. Cells incubated with STING ligands which are not agonists will not result in detectable phospho-STING or phospho-TBK1 using the methods outlined above and in Examples 11. In another example, following the method described in Example 12, human skin fibroblasts may be pretreated for 2hours with a serial dilution of a test compounds, for example a compound comprising an S1 ligand, prior to stimulation with a STING agonist (e.g. 300 nM GSK STING agonist). Supernatants may then be harvested after STING agonist stimulation (e.g. after 20 h stimulation). IFN-a/b may be measured in the supernatants using HEK-Blue IFN-α/β bioassay (Invivogen) to determine a half-maximal inhibitory concentration of a test compound.
as §1, §2
In Figure 10A, HFF-1 cells were treated with 5 µM of compounds A11, A25, A26, or A30, or 0.5 µM STING antagonist control for 15 min followed prior to addition of 300 nM diABZI and incubation for 2 h or 5 h. The cells were lysed and analysed on WB. As additional controls, cells were left untreated (UT), treated with Lipofectamine (Lipo control) or with compounds A26 or A30 as single agent. The WB membrane was probed for p-STING, STING, p-IRF3, p-TBK1, and Vinculin.
as §3

STING [4] = target: T1, STING; assay: Western Blot of diABZI-induced STING activation in primary human skin fibroblasts (Figure 9); design: To assess STING degradation and recovery in human foreskin fibroblasts HFF-1 cells; host or cells: HFF-1 human foreskin fibroblasts; details: 5 µM
Description: as §1, §2
Cells were incubated with A9 or A11 for 1 or 2 hours before addition of diABZI c3, treated with test compound and diABZI c3 simultaneously, or treated with A9 or A11 after 15 minutes incubation with diABZI c3. As a control, cells were also treated with diABZI c3 alone.

STING [5] = target: T1, STING; assay: Inhibition of STING-agonist-induced IFN-β and CXCL10 release (Figure 11); design: To assess STING degradation and recovery in human foreskin fibroblasts HFF-1 cells; host or cells: HFF-1 human foreskin fibroblasts
Description: HFF-1 cells were assessed for inhibition of STING-agonist-induced IFN-β and CXCL10 release in cells treated with Compounds A9 and A11.
HFF-1 cells were cultured as described in Example 7 above except that cells were seeded in a 24-well plate at 30,000 cells/well. […]

STING [6] = target: T1, STING; assay: Western Blot analysis for STING degradation in H596, H1650 and HaCat cells; details: 0.22 µM, 0.67 µM, 2 µM and 6 µM, 24h, Figure 4
Description: To assess STING degradation in H596 cells (ATCC, HTB-178) cells were seeded at a density of 100.000 cells/well in 24-well Nunclon Delta surface treated culture plate in RPMI-1640 growth medium (supplemented with 10% FBS, 1% Pen-strep). Cells were incubated over-night at 37°C 5% CO2 to allow adhesion. Next day growth medium was renewed and a 5x concentration of test compounds (2.5% DMSO) diluted in growth medium were added to the appropriate well. Final DMSO concentration was 0.5%. Cell culture plates were returned to the incubator for additional 24h. The same protocols were used to grow H1650 and HaCat cells except that cells were seeded at a density of 150,000 cells/well and 250,000 cells/well, respectively
Final test compound concentrations were 0.22 µM, 0.67 µM, 2 µM and 6 µM.
For cell lysis, western blotting and data analysis, the following methods were applied.
For cell lysing for Western Blot analysis cell culture plates were brought to ice, supernatant was removed by aspiration and cells washed 2x in ice-cold DPBS. […] Samples were either analysed directly or stored at -80°C until analysis.
For Western Blotting, total protein concentration in each lysate was determined using PIERCE Gold BCA Assay kit according to manufactures protocol. […]

| Compound | STING, TBK1 and IRF1 phosphorylation (STING [1]) | STING, TBK1 and IRF3 phosphorylation (STING [2]) | phosphorylation of STING, IRF1 or TBK1 (STING [3]) | LC3B lipidation (STING [4]; 0.3 µM diABZI) | P-TBK1 (STING [4]; 0.3 µM diABZI, versus diABZI c3 only) | P-STING (STING [4]; before (-2h, -1h), simultaneously with, or 15 minutes after 0.3 µM diABZI, versus diABZI c3 only) | IFN media concentration (STING [5]; 5 µM compound 1 to 2 hours before, simultaneously with, or 15 minutes after 0.3 µM diABZI c3, Figure 11A) | CXCL10 media concentration (STING [5]; 5 µM compound before, simultaneously with, or after diABZI c3, Figure 11B, filled bars) [pg/mL] | secretion of Functional Type I IFN (STING [5]; human skin fibroblasts, 5 µM, 0.3 µM diABZI, Figure 11 (A)) | secretion of CXCL10 (STING [5]; human skin fibroblasts, 5 µM, 0.3 µM diABZI, Figure 11 (B)) | STING degradation (STING [6]) |
| --- | --- | --- | --- | --- | --- | --- | --- | --- | --- | --- | --- |
| CCn1nc(C)cc1C(=O)N=c1n(C)c2cc(C(N)=O)ccc2n1CCC(CCn1c(=NC(=O)c2cc(C)nn2CC)n(C)c2cc(C(N)=O)ccc21)OCC(=O)N1CCC[C@H]1c1cccc(OC)c1 (stereo partly drawn) [A11, 1-(3-{2-[(S)-2-(3-Methoxyphenyl)-1-pyrrolidinyl]-2-oxoethoxy}-5-{5-carbamoyl-2-[(1-ethyl-3-methyl-5-pyrazolyl)carbonylimino]-3-methyl-2,3-dihydro-1H-1,3-benzimidazol-1-yl}pentyl)-2-[(1-ethyl-3-methyl-5-pyrazolyl)carbonylimino]-3-methyl-2,3-dihydro-1H-1,3-benzimidazole-5-carboxamide] | lower; also recorded: inhibited STING, IRF3 and TBK1 phosphorylation and activation | lower; also recorded: inhibited STING, IRF3 and TBK1 phosphorylation and activation | do not induce STING, IRF3 or TBK1 phosphorylation and activation alone | reduced LC3B lipidation | reduced P-TBK1 intensity | reduced intensity; also recorded: decrease in P-STING | -10 - 20 U/mL | -10 to 20 | inhibits secretion | inhibits secretion |  |
| CCn1nc(C)cc1C(=O)N=c1n(C)c2cc(C(N)=O)ccc2n1CCC(CCn1c(=NC(=O)c2cc(C)nn2CC)n(C)c2cc(C(N)=O)ccc21)OCC(=O)NCCOCCOCCOCCOCCC(=O)NCCOCCOCCOCCOCC(=O)N[C@H](C(=O)N1C[C@H](O)C[C@H]1C(=O)NCc1ccc(-c2scnc2C)cc1)C(C)(C)C (some centres unmarked) [Example compound 6] |  |  |  |  |  |  |  |  |  |  | induction of STING degradation; also recorded: induces visible degradation in H1650 and H596 at higher concentrations |
